Test results from patent US12077503B2, “Substituted cyclic amides and their use as herbicides” (FMC CORPORATION, priority 2015, dated 2024).

Tests used:
Assay type in all cases: in vivo
Kochia (Kochia scoparia) [1] = experiment: Test A preemergence; conditions: Bassia scoparia, pre-emergence, 240 h, 0 to 100 scale where 0 is no effect and 100 is complete control, read-out: Kochia plant response rating
How it was run: (§1)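 Treatment is preemergence as a directed soil spray after planting, or postemergence at the one- to two-leaf stage, with test chemical in a non-phytotoxic solvent mixture plus surfactant. Plants stay in the greenhouse about 10 d before visual injury scoring on a 0 to 100 scale versus untreated controls.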

[2] = test system: barnyardgrass (Echinochloa crus-galli); experiment: Test A preemergence; conditions: Echinochloa crus-galli, pre-emergence, 240 h, 0 to 100 scale where 0 is no effect and 100 is complete control, read-out: Barnyardgrass plant response rating
How it was run: as §1

[3] = test system: giant foxtail (Setaria faberii); experiment: Test A preemergence; conditions: Setaria faberi, pre-emergence, 240 h, 0 to 100 scale where 0 is no effect and 100 is complete control, read-out: Foxtail, Giant plant response rating
How it was run: as §1

[4] = test system: pigweed (Amaranthus retroflexus); experiment: Test A preemergence; conditions: Amaranthus retroflexus, pre-emergence, 240 h, 0 to 100 scale where 0 is no effect and 100 is complete control, read-out: Pigweed plant response rating
[5] = test system: ragweed (common ragweed, Ambrosia elatior); experiment: Test A preemergence; conditions: Ambrosia artemisiifolia, pre-emergence, 240 h, 0 to 100 scale where 0 is no effect and 100 is complete control, read-out: Ragweed plant response rating
How it was run: as §1

[6] = test system: ryegrass, Italian (Italian ryegrass, Lolium multiflorum); experiment: Test A preemergence; conditions: Lolium multiflorum, pre-emergence, 240 h, 0 to 100 scale where 0 is no effect and 100 is complete control, read-out: Ryegrass, Italian plant response rating
How it was run: as §1

[7] = test system: Galium (catchweed bedstraw, Galium aparine); experiment: Test A postemergence; conditions: Galium, post-emergence, 240 h
How it was run: as §1

Kochia (Kochia scoparia) [8] = experiment: Test A postemergence; conditions: Bassia scoparia, post-emergence, 240 h
How it was run: as §1

[9] = test system: barnyardgrass (Echinochloa crus-galli); experiment: Test A postemergence; conditions: Echinochloa crus-galli, post-emergence, 240 h
How it was run: as §1

[10] = test system: blackgrass (Alopecurus myosuroides); experiment: Test A postemergence; conditions: Alopecurus myosuroides, post-emergence, 240 h
How it was run: as §1

corn (Zea mays) = experiment: Test A postemergence; conditions: Zea mays, post-emergence, 240 h
How it was run: as §1

[11] = test system: giant foxtail (Setaria faberii); experiment: Test A postemergence; conditions: Setaria faberi, post-emergence, 240 h
How it was run: as §1

[12] = test system: pigweed (Amaranthus retroflexus); experiment: Test A postemergence; conditions: Amaranthus retroflexus, post-emergence, 240 h
How it was run: as §1

[13] = test system: ragweed (common ragweed, Ambrosia elatior); experiment: Test A postemergence; conditions: Ambrosia artemisiifolia, post-emergence, 240 h
How it was run: as §1

[14] = test system: ryegrass, Italian (Italian ryegrass, Lolium multiflorum); experiment: Test A postemergence; conditions: Lolium multiflorum, post-emergence, 240 h
How it was run: as §1

[15] = test system: wheat (Triticum aestivum); experiment: Test A postemergence; conditions: Triticum aestivum, post-emergence, 240 h
How it was run: as §1

[16] = test system: barnyardgrass (Echinochloa crus-galli); experiment: Test B flooded paddy test; conditions: Echinochloa crus-galli, 250 g ai/ha, Flood; 0 to 100 scale where 0 is no effect and 100 is complete control; read-out: Barnyardgrass plant response rating
How it was run: (§2)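 Response scored visually against untreated controls, 0 = no effect and 100 = complete control, 13–15 d after treatment in the greenhouse. Compounds added to paddy water held 3 cm above soil surface. Treatment given at 2-leaf stage.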

[17] = test system: ducksalad (Heteranthera limosa); experiment: Test B flooded paddy test; conditions: Heteranthera limosa, 250 g ai/ha, Flood; 0 to 100 scale where 0 is no effect and 100 is complete control; read-out: Ducksalad plant response rating
How it was run: as §2

rice (Oryra sativa) = experiment: Test B flooded paddy test; conditions: Oryza sativa, 250 g ai/ha, Flood; 0 to 100 scale where 0 is no effect and 100 is complete control; read-out: Rice plant response rating
How it was run: as §2

[18] = test system: sedge, umbrella (small-flower umbrella sedge, Cyperus difformis); experiment: Test B flooded paddy test; conditions: Cyperus difformis, 250 g ai/ha, Flood; 0 to 100 scale where 0 is no effect and 100 is complete control; read-out: Sedge, Umbrella plant response rating
How it was run: as §2

[19] = 125 g ai/ha, preemergence, approx. 10 d

O=C1NC[C@H](c2ccc(C(F)(F)F)cn2)[C@H]1C(=O)Nc1ccc(F)c(F)c1F [Compound 1105]
pest or weed control at 31 g/ha (Kochia (Kochia scoparia) [1]; 31 g ai/ha, Preemergence): 0% | pest or weed control at 125 g/ha (Kochia (Kochia scoparia) [1]; [19]): 70% | pest or weed control at 31 g/ha ([2]; 31 g ai/ha, Preemergence): 30% | pest or weed control at 125 g/ha [2, 19]: 60% | pest or weed control at 31 g/ha ([3]; 31 g ai/ha, Preemergence): 20% | pest or weed control at 125 g/ha [3, 19]: 90% | pest or weed control at 31 g/ha ([4]; 31 g ai/ha, Preemergence): 0% | pest or weed control at 125 g/ha [4, 19]: 0% | pest or weed control at 31 g/ha ([5]; 31 g ai/ha, Preemergence): 0% | pest or weed control at 125 g/ha [5, 19]: 20% | pest or weed control at 31 g/ha ([6]; 31 g ai/ha, Preemergence): 0% | pest or weed control at 125 g/ha [6, 19]: 0% | pest or weed control at 125 g/ha ([7]; 125 g ai/ha, postemergence, visual injury on 0 to 100 scale (0 no effect, 100 complete control), approx. 10 d, read-out: Galium plant response rating): 40% | pest or weed control at 31 g/ha ([7]; Postemergence, 31 g ai/ha, visual injury after approx. 10 d, 0 to 100 scale, 0 no effect, 100 complete control, read-out: Plant response rating, Galium): 30% | pest or weed control at 125 g/ha (Kochia (Kochia scoparia) [8]; 125 g ai/ha, postemergence, visual injury on 0 to 100 scale (0 no effect, 100 complete control), approx. 10 d, read-out: Kochia plant response rating): 20% | pest or weed control at 31 g/ha (Kochia (Kochia scoparia) [8]; Postemergence, 31 g ai/ha, visual injury after approx. 10 d, 0 to 100 scale, 0 no effect, 100 complete control, read-out: Plant response rating, Kochia): 0% | pest or weed control at 125 g/ha ([9]; 125 g ai/ha, postemergence, visual injury on 0 to 100 scale (0 no effect, 100 complete control), approx. 10 d, read-out: Barnyardgrass plant response rating): 30% | pest or weed control at 31 g/ha ([9]; Postemergence, 31 g ai/ha, visual injury after approx. 10 d, 0 to 100 scale, 0 no effect, 100 complete control, read-out: Plant response rating, Barnyardgrass): 0% | pest or weed control at 125 g/ha ([10]; 125 g ai/ha, postemergence, visual injury on 0 to 100 scale (0 no effect, 100 complete control), approx. 10 d, read-out: Blackgrass plant response rating): 0% | pest or weed control at 31 g/ha ([10]; Postemergence, 31 g ai/ha, visual injury after approx. 10 d, 0 to 100 scale, 0 no effect, 100 complete control, read-out: Plant response rating, Blackgrass): 0% | plant injury at 125 g/ha (corn (Zea mays); 125 g ai/ha, postemergence, visual injury on 0 to 100 scale (0 no effect, 100 complete control), approx. 10 d, read-out: Corn plant response rating): 0% | Corn plant response rating (crop injury, 0 = no effect, 100 = complete kill) at 31 g/ha (corn (Zea mays); Postemergence, 31 g ai/ha, visual injury after approx. 10 d, 0 to 100 scale, 0 no effect, 100 complete control): 0% | pest or weed control at 125 g/ha ([11]; 125 g ai/ha, postemergence, visual injury on 0 to 100 scale (0 no effect, 100 complete control), approx. 10 d, read-out: Foxtail, Giant plant response rating): 50% | pest or weed control at 31 g/ha ([11]; Postemergence, 31 g ai/ha, visual injury after approx. 10 d, 0 to 100 scale, 0 no effect, 100 complete control, read-out: Plant response rating, Foxtail, Giant): 0% | pest or weed control at 125 g/ha ([12]; 125 g ai/ha, postemergence, visual injury on 0 to 100 scale (0 no effect, 100 complete control), approx. 10 d, read-out: Pigweed plant response rating): 0% | pest or weed control at 31 g/ha ([12]; Postemergence, 31 g ai/ha, visual injury after approx. 10 d, 0 to 100 scale, 0 no effect, 100 complete control, read-out: Plant response rating, Pigweed): 0% | pest or weed control at 125 g/ha ([13]; 125 g ai/ha, postemergence, visual injury on 0 to 100 scale (0 no effect, 100 complete control), approx. 10 d, read-out: Ragweed plant response rating): 0% | pest or weed control at 31 g/ha ([13]; Postemergence, 31 g ai/ha, visual injury after approx. 10 d, 0 to 100 scale, 0 no effect, 100 complete control, read-out: Plant response rating, Ragweed): 0% | pest or weed control at 125 g/ha ([14]; 125 g ai/ha, postemergence, visual injury on 0 to 100 scale (0 no effect, 100 complete control), approx. 10 d, read-out: Ryegrass, Italian plant response rating): 0% | pest or weed control at 31 g/ha ([14]; Postemergence, 31 g ai/ha, visual injury after approx. 10 d, 0 to 100 scale, 0 no effect, 100 complete control, read-out: Plant response rating, Ryegrass, Italian): 0% | plant injury at 125 g/ha ([15]; 125 g ai/ha, postemergence, visual injury on 0 to 100 scale (0 no effect, 100 complete control), approx. 10 d, read-out: Wheat plant response rating): 0% | plant injury at 31 g/ha ([15]; Postemergence, 31 g ai/ha, visual injury after approx. 10 d, 0 to 100 scale, 0 no effect, 100 complete control, read-out: Plant response rating, Wheat): 0% | pest or weed control at 250 g/ha [16]: 50% | pest or weed control at 250 g/ha [17]: 100% | pest or weed control at 250 g/ha (rice (Oryra sativa)): 20% | pest or weed control at 250 g/ha [18]: 0%
